pKi: −log10 of the molar value. Where a SMILES comes first, the peptide text is derived from it. Bridges are numbered along the chain shown (N, C = ends).
How the values were obtained:
h-FXIIa [1] = biological target: T1, h-FXIIa (Homo sapiens, UniProt P00748); experiment: Effect of inhibitors on hydrolysis of S2302 by h-FXIIa; type: biochemical
T1 construct: purchased Enzyme Research Laboratories FXIIa 1212A
T1 sequence (P00748 373-615 limits assumed): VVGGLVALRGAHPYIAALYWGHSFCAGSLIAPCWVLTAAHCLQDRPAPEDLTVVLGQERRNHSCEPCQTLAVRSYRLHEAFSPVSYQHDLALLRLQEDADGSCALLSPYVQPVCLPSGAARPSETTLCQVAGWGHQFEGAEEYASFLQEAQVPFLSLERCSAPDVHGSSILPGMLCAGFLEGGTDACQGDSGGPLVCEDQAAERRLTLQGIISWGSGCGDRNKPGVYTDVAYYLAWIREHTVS
T1 sequence (P00748 20-372 partner limits assumed): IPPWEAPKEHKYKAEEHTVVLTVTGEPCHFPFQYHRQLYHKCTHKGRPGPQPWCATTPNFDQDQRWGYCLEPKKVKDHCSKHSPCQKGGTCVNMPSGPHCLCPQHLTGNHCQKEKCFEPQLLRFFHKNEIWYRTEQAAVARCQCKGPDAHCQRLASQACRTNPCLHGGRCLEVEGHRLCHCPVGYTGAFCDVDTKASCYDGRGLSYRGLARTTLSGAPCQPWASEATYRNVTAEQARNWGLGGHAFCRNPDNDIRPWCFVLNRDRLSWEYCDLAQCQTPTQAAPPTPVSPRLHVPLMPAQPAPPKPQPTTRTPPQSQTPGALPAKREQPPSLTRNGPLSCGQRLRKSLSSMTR
Protocol: (§1) Materials • S2302 From Chromogenic, lot # N0398718 SEQ0860, exp. date 2012-07. Water added on 7 Oct. […] On 3 Aug. […] Product code FXIIa 1212A, lot #FXIIa 2520PL. Bottle with 0.5 mg was reconstituted with 370 μl pure water. […] Buffer 4 mM NaAc, 150 mM NaCl (pH 5.3). Preparation was divided into 20 μl amounts and frozen at −80° C. • Hepes735 140 mM NaCl, 20 mM Hepes, 0.02% NaN3 (pH 7.35). • BSA5 Hepes735+5 mg/ml BSA. • CTI Prepared on 17 Dec. 2004, 0.141 mg/ml, i.e. 0.141/12028=11.7*10^−6 M (11.7 μM). One portion was thawed and divided into 3 parts. Part 1 was frozen at −80° C.; part 2 was kept at RT; and part 3 was incubated 30 min at 95° C. and then kept at RT.
(§2) Stock FXIIa was diluted 700× in BSA5. The inhibitor was diluted in BSA5 as indicated. Wells contained 70 μl diluted FXIIa (5 nM final), 70 μl inhibitor and 20 μl S2302 (475 or 462.5 μM final). The reaction was started after 5 min heating on the heating plate with S2302. Filters 405 nm and 490 nm reference. Found mΔA/min was multiplied by 2.14 to get the figure for a 1 cm path.
The residual activity (V) was fitted against the PTI concentration with equation:
(§3) V=(E+(sqrt(Ê2+2*E*(Ki−I)+Î2+2*I*Ki+Kî2)−E−I−Ki)/2)*kcat*S/(Km+S)
(§4) in which E=[FXIIa], Ki is the dissociation constant, I=[Inhibitor], kcat and Km are Michaelis constants and S=[S2302].

contact activation = experiment: Thrombin generation (CAT) in platelet poor plasma contact activated with kaolin; type: biochemical, human; conditions: concentration that prolongs clotting time of kaolin contact activated plasma four times
Protocol: Thrombin generation was carried out according to WO2003/093831.
Following a double centrifugation at 2500×g for 15 min at room temperature, platelet poor plasma (PPP) was collected from the upper half volume of plasma supernatant, quick frozen and stored at −80° C. The absence of platelet and leucocyte in PPP was checked with an ADVIA 120 counter (Bayer Diagnostics, NY, USA).
Recombinant human tissue factor Innovin® was obtained from Dade Behring (Marburg, Germany) and used at a final concentration of 0.5 pM in PRP and 1 or 5 pM in PPP samples. The phospholipid vesicles used at a final concentration of […] were obtained from Avanti Polar Lipids (Alabaster, Ala., USA) and consisted of 20 mol % phosphatidylserine (PS), 20 mol % phosphatidylethanolamine (PE) and 60 mol % phosphatidylcholine (PC) and were prepared by extrusion method (9,10). Kaolin light (hydrated aluminium silicate) was obtained from Baker Harrison ltd, (Ilford, UK).
Hepes-buffered saline contained 20 mM Hepes (Sigma Aldrich, l'Ile d'Abeau Chesnes, France), 140 mM NaCl and 5 mg/mL bovine serum albumin (BSA) (Euromedex, Souffelweyersheim, France), pH 7.35. This buffer was stored at −20° C. until use. A fresh mixture of fluorogenic substrate and CaCl2 was prepared before each experiment. Fluorogenic substrate, Z-Gly-Gly-Arg-AMC, was obtained from Bachem (Bubendorf, Switzerland). The mixture of fluorogenic substrate 2.5 mM and CaCl2 0.1 M was prepared using buffer containing Hepes 20 mM and 60 mg/mL BSA, pH 7.35. The Calibrator with the activity of 600 nM human thrombin was obtained from Thrombinoscope BV (Maastricht, The Netherlands). Transparent, round bottom Greiner microtiter plates (Greiner ref 65204, Poitiers, France) were used.
Thrombin generation was measured using Calibrated Automated Thrombography (CAT) according to the methodology of WO2003/093831 and a 96-well plate fluorometer (Fluoroscan Ascent Reader, Thermolab systems OY, Helsinki, Finland) equipped with a 390/460 nm filter set. Briefly, 80 μL of plasma is dispensed into the wells of round-bottom 96 well-microtiter plates. 20 μL of a mixture containing tissue factor and phospholipids is added to the PPP sample; alternatively, in order to obtain contact activation, the citrated plasma is preincubated for at least 10 min with 1 mg/ml of Kaolin light. The starting reagent (20 μL per well) contains fluorogenic substrate and CaCl2. […] The most important parameters that can be derived from CAT are lag time, endogenous thrombin potential corresponding to the area under the CAT curve, peak height of thrombin and time to peak.

h-FXIIa [2] = biological target: T1, h-FXIIa; experiment: Stability of CTI, PTI and TICA at RT and at 95° C., read as inhibition of h-FXIIa; type: physicochemical
Protocol: as §1, with “Part 1 was frozen at −80° C.; part 2 was kept at RT; and part 3 was incubated 30 min at 95° C. and then kept at RT.” left out
as §2, with “ΔmA/min” for “mΔA/min”
The residual activity (V) was fitted against the inhibitor concentration with equation:
as §3, §4
To calculate the concentration of I the equation I=x·(x−E−Ki)/(x−E) was used. In this equation is I the calculated inhibitor concentration, x=the residual activity of FXIIa (free FXIIa), E the total FXIIa concentration (=9.33 nM), and Ki the dissociation or inhibitor constant.

[3] = ki F.XIIa (ng/ml), Before heating

Structure (SMILES)	Ki (h-FXIIa [1]; ki F.XIIa (nM), Before heating)	pKi (h-FXIIa [1]; [3])	4 × lag-time (ng/ml) (contact activation; After heating)	4 × lag-time (μM) (contact activation; After heating)	4 × lag-time (ng/ml) (contact activation; Before heating)	4 × lag-time (μM) (contact activation; Before heating)	Res. Act. (%) (h-FXIIa [2]; inhibitor 30 min 95° C.)	Res. Act. (%) (h-FXIIa [2]; inhibitor at RT during 72 hrs)	Res. Act. (%) (h-FXIIa [2]; inhibitor kept at −80° C.)	pKi (h-FXIIa [1]; Ki, Table 2, inhibitory activity of different polypeptides)
CC[C@H](C)[C@@H]1NC(=O)[C@@H]2CSSC[C@H](NC(=O)[C@@H](NC(=O)[C@@H](N)CCCNC(=N)N)C(C)C)C(=O)N3CCC[C@H]3C(=O)N[C@@H](CCCCN)C(=O)N[C@@H]([C@@H](C)CC)C(=O)N[C@@H](CC(C)C)C(=O)N[C@@H](CCSC)C(=O)N[C@@H](CCC(=O)O)C(=O)N[C@H]3CSSC[C@H](NC1=O)C(=O)N[C@@H](CC(C)C)C(=O)N[C@@H](CCC(=O)O)C(=O)N[C@@H](Cc1c[nH]cn1)C(=O)NCC(=O)N[C@@H](Cc1ccc(O)cc1)C(=O)N[C@H](C(=O)NCC(=O)O)CSSC[C@H](NC(=O)[C@H](CC(=O)O)NC(=O)[C@H](CO)NC(=O)[C@H](CC(=O)O)NC(=O)[C@H](CCCCN)NC(=O)[C@H](CCCCN)NC3=O)C(=O)N[C@@H](CC(C)C)C(=O)N[C@@H](C)C(=O)N[C@@H](CCC(=O)O)C(=O)N2 [TICA4] (H-RVCPKILMECKKDSDCLAECICLEHGYCG-OH; disulfide 3-20, 10-22, 16-28 (inferred); N-terminus and C-terminus assumed)	1420 nM	5.85	102.9 ng/mL	31.4 µM	102.7 ng/mL	31.6 µM	94%	98%	100%	
CC[C@H](C)[C@@H]1NC(=O)[C@H](CCCNC(=N)N)NC(=O)[C@@H]2CCCN2C(=O)[C@@H](NC(=O)[C@@H](NC(=O)[C@@H](N)CCCNC(=N)N)C(C)C)CSSC[C@@H]2NC(=O)[C@H](CCC(=O)O)NC(=O)[C@H](C)NC(=O)[C@H](CC(C)C)NC(=O)[C@@H]3CSSC[C@@H](C(=O)NCC(=O)O)NC(=O)[C@H](Cc4ccc(O)cc4)NC(=O)CNC(=O)[C@H](Cc4c[nH]cn4)NC(=O)[C@H](CCC(=O)O)NC(=O)[C@H](CC(C)C)NC(=O)[C@H](CSSC[C@H](NC(=O)[C@H](CCC(=O)O)NC(=O)[C@H](CCSC)NC(=O)[C@H](CC(C)C)NC1=O)C(=O)N[C@@H](CCCCN)C(=O)N[C@@H](CCCCN)C(=O)N[C@@H](CC(=O)O)C(=O)N[C@@H](CO)C(=O)N[C@@H](CC(=O)O)C(=O)N3)NC(=O)[C@H](C(C)C)NC2=O [TICA2] (H-RVCPRILMECKKDSDCLAECVCLEHGYCG-OH; disulfide 3-20, 10-22, 16-28 (inferred); N-terminus and C-terminus assumed)		6.96	31.9 ng/mL	9.8 µM	31.1 ng/mL	9.6 µM	99%	105%	100%	6.96

Source: US20140296146A1, “Thermostable Inhibitors of Activation of the Blood Clotting System Through Contact with Foreign Surfaces” (Synapse B.V., priority 2011, published 2014)
